Reference: patent publication US20060160070A1, “Association-based epitome design” (Microsoft Corporation, priority 2004, published 2006)

Columns and labels:
HLA A*0301 [1] = biological target: T1, HLA A*0301 (Homo sapiens, UniProt P04439); assay: Multi-parametric analysis iScore; format: binding; set-up: scale not given here; details: index integrating t1/2 and ED50
T1 construct: purchased
Protocol: (§1) Multi-parametric analysis was performed to integrate the half-life (t½) and ED50 parameters in an index (iScore). The iScore (Table 13) reflects the capability of a peptide to reconstitute with MHC molecules in a stable complex, defining its overall level of binding.

HLA A*0201 [2] = biological target: T2, HLA A*0201 (Homo sapiens, UniProt P04439, D140Y/D185E/D98H/E176V/E277Q/G131W/G231S/I119V/I121R/I166T/I218V/L300P/L318F/N151K/N90K/P208A/P217A/Q86G/Q94H/R138H/R169H/T345S); assay: Multi-parametric analysis iScore; format: binding; set-up: scale not given here; details: index integrating t1/2 and ED50
Protocol: as §1

HLA A*0101 [3] = biological target: T3, HLA A*0101 (Homo sapiens, UniProt P04439, A114D/A174V/A182V/D101N/D185E/E176A/E190D/L180R/Q94H/R68K/S129P/T187R/V100A/V91M/W191G); assay: Multi-parametric analysis iScore; format: binding; set-up: scale not given here; details: index integrating t1/2 and ED50
T3 construct: purchased
Protocol: as §1

HLA B*0801 [4] = biological target: T4, HLA B*0801 (Homo sapiens, UniProt P01889, A93T/A95T/D138N/E176V/E187T/K202T/Q94N/R180D/S35A/V36M/Y33D/Y91F); assay: Multi-parametric analysis iScore; format: binding; set-up: scale not given here; details: index integrating t1/2 and ED50
T4 construct: purchased
Protocol: as §1

HLA B*1501 [5] = biological target: T5, HLA B*1501 (Homo sapiens, UniProt P01889, A329T/A93T/A95T/C349S/D201E/D98Y/E187L/E204Q/E69M/E70A/K202T/N87E/Q94N/R155S/R180W/S121R/S35A/S48A/V306I/V36M/Y140S/Y91S); assay: Multi-parametric analysis iScore; format: binding; set-up: scale not given here; details: index integrating t1/2 and ED50
T5 construct: purchased
Protocol: as §1

HLA A*1101 [6] = biological target: T6, HLA A*1101 (Homo sapiens, UniProt P04439, A114D/D185E/E176A/F33Y/L180Q/S129P/T187R); assay: Multi-parametric analysis iScore; format: binding; set-up: scale not given here; details: index integrating t1/2 and ED50
T6 construct: purchased
Protocol: as §1

HLA A*2402 [7] = biological target: T7, HLA A*2402 (Homo sapiens, UniProt P04439, D101N/D140Y/D185E/E176V/E190D/F33S/G103R/G107R/I119L/I121M/I306V/K335N/L105A/L180Q/L300P/N151K/N90K/Q86E/Q94H/R106L/R138H/R89G/T104I/T345S/V100E/W191G/Y123F); assay: Multi-parametric analysis iScore; format: binding; set-up: scale not given here; details: index integrating t1/2 and ED50
Protocol: as §1

HLA B*0702 [8] = biological target: T8, HLA B*0702 (Homo sapiens, UniProt P01889); assay: Multi-parametric analysis iScore; format: binding; set-up: scale not given here; details: index integrating t1/2 and ED50
T8 construct: purchased
Protocol: as §1

HLA A*0301 [9] = biological target: T1, HLA A*0301; assay: ITOPIA peptide binding assay; details: 1.11×10^−4M of peptide
Protocol: (§2) Peptide binding, off-rate and affinity were measured according to the protocols described in the ITOPIA Epitope Discovery System Customer Guide. To conduct the experiments, ninety-six (96) micro-titer plates coated with MHC molecules representing the HLA alleles listed in Table 9 were used to identify candidate peptides. Determinations were performed in duplicate using an ELISA plate reader. The peptide binding assay used measures the ability of individual peptides to bind to the HLA molecules under standardized optimal binding conditions. The assay was performed for all the test peptides across the selected HLA alleles. The test peptides identified as “binders” were characterized further in terms of affinity and dissociation experiments. The off-rate assay used evaluates the dissociation of previously bound peptide at defined time points (expressed as the t1/2 value). The affinity assay used measures the relative binding affinities for the MHC molecules determined by incubating candidate peptides identified in the initial peptide binding assay at increasing concentrations (expressed as quantity of peptide needed to achieve 50% binding or ED50 value).
(§3) The binding of the test peptides (Table 8) to the HLA molecules (Table 9) was performed at a concentration of 1.11×10^−4M of peptide under optimal, standardized test conditions. A control peptide was run in parallel on the same plate and at the same concentration as the test peptides. […] The level of binding is expressed as a percent of positive control peptide binding for each allele.

HLA A*0201 [10] = biological target: T2, HLA A*0201; assay: ITOPIA peptide binding assay; details: 1.11×10^−4M of peptide
Protocol: as §2, §3

HLA A*0101 [11] = biological target: T3, HLA A*0101; assay: ITOPIA peptide binding assay; details: 1.11×10^−4M of peptide
Protocol: as §2, §3

HLA B*0801 [12] = biological target: T4, HLA B*0801; assay: ITOPIA peptide binding assay; details: 1.11×10^−4M of peptide
Protocol: as §2, §3

HLA B*1501 [13] = biological target: T5, HLA B*1501; assay: ITOPIA peptide binding assay; details: 1.11×10^−4M of peptide
Protocol: as §2, §3

HLA A*1101 [14] = biological target: T6, HLA A*1101; assay: ITOPIA peptide binding assay; details: 1.11×10^−4M of peptide
Protocol: as §2, §3

HLA A*2402 [15] = biological target: T7, HLA A*2402; assay: ITOPIA peptide binding assay; details: 1.11×10^−4M of peptide
Protocol: as §2, §3

HLA B*0702 [16] = biological target: T8, HLA B*0702; assay: ITOPIA peptide binding assay; details: 1.11×10^−4M of peptide
Protocol: as §2, §3

HLA A*0201 [17] = biological target: T2, HLA A*0201; assay: ITOPIA off-rate assay; format: binding; details: 37° C., one-phase exponential decay
Protocol: as §2
(§4) The peptides initially identified as binders were evaluated for stability based on their ability to remain bound to MHC molecules at 37° C. at time points 0, 0.5, 1, 1.5, 2, 4, 6 and 8 hours. […] The values obtained for each time point (in duplicate) are expressed (Table 11) as a percentage of the positive control. To calculate the t1/2 and goodness-of-fit, as measured by r^2, for each peptide, a one-phase exponential decay curve, with a plateau given equal to 0, was generated using […] PRISM software.

HLA A*2402 [18] = biological target: T7, HLA A*2402; assay: ITOPIA off-rate assay; format: binding; details: 37° C., one-phase exponential decay
Protocol: as §2, §4

Row | Substance | iScore (HLA A*0301 [1]) | iScore (HLA A*0201 [2]) | iScore (HLA A*0101 [3]) | iScore (HLA B*0801 [4]) | iScore (HLA B*1501 [5]) | iScore (HLA A*1101 [6]) | iScore (HLA A*2402 [7]) | iScore (HLA B*0702 [8]) | level of binding, percent of positive control peptide binding (HLA A*0301 [9]) | level of binding, percent of positive control peptide binding (HLA A*0201 [10]) | level of binding, percent of positive control peptide binding (HLA A*0101 [11]) | level of binding, percent of positive control peptide binding (HLA B*0801 [12]) | level of binding, percent of positive control peptide binding (HLA B*1501 [13]) | level of binding, percent of positive control peptide binding (HLA A*1101 [14]) | level of binding, percent of positive control peptide binding (HLA A*2402 [15]) | level of binding, percent of positive control peptide binding (HLA B*0702 [16]) | A*0201 t1/2 (HLA A*0201 [17]) [h] | A*2402 t1/2 (HLA A*2402 [18]) [h]
1 | 70 (VPLTEEAEL; HIV) [compound 70] | 0 | 0 | 0 | 0 | 0 | 0 | 0 | 0 | 0% of positive control | 5% of positive control | 1% of positive control | 4% of positive control | 4% of positive control | 1% of positive control | 6% of positive control | 4% of positive control |  | 
2 | 155 (HNEWTLELL; HIV) [compound 155] | 0 | 0 | 0 | 0 | 0 | 0 | 0 | 0 | 0% of positive control | 5% of positive control | 0% of positive control | 3% of positive control | 0% of positive control | 1% of positive control | 13% of positive control | 1% of positive control |  | 
3 | ALFYKLDVV [compound 72] | 0 | 0.484 | 0 | 0 | 0 | 0 | 0 | 0 | 5% of positive control | 80% of positive control | 4% of positive control | 3% of positive control | 4% of positive control | 1% of positive control | 14% of positive control | 3% of positive control | 4.0 | 
4 | VTLTEEAEL [compound 156] | 0 | 0.110 | 0 | 0 | 0 | 0 | 0 | 0 | 0% of positive control | 26% of positive control | 1% of positive control | 4% of positive control | 7% of positive control | 1% of positive control | 11% of positive control | 0% of positive control | 1.2 | 
5 | YNEWTLELL [compound 22] | 0 | 0 | 0 | 0 | 0 | 0 | 0.071 | 0 | 0% of positive control | 7% of positive control | 0% of positive control | 3% of positive control | 0% of positive control | 1% of positive control | 35% of positive control | 2% of positive control |  | 1.5
